# Experiments:
# Drosophila muscle tissue = test: Western blot of mitochondrial fraction after CCCP treatment
# Method: (§1) Co-Immunoprecipitation and Western blot analysis. Approximately 25 adult fly thoraces were collected and homogenized in HBS buffer (210 mM Mannitol, 70 mM Sucrose, 5 mM HEPES pH 7.4, 1 mM EGTA) containing protease inhibitor (Sigma). The lysate was centrifuged at 1,300 g for 10 min, and the supernatant was collected and centrifuged again at 13,000 g for 15 min. For co-IP, the cytosolic and the mitochondrial fractions were incubated with anti-GFP conjugated protein G-agarose beads (Upstate) at 4° C. for 2 hours. Beads were washed 3× with PBS for 5 min each. Proteins were eluted and analyzed by WB as described (Wu et al., 2013). For co-IP assays using human NSC and GBM cells, soluble extracts of isolated mitochondrial fractions were incubated with a mixture of anti-human PINK1 (Abcam) and protein G-agarose beads (Upstate). The primary antibodies used were: pS505-dAKT and AKT (Cell Signaling Technology), Actin (Millipore), NICD (DSHB), NDUFS3 (MitoScience), complex IV subunit I (MitoScience), Drp-1 (L. Pallanck), Calnexin (Novus), PDE1 (MitoScience), Tom20 (Santa Cruz), KDEL (Enzo Life Science), Rab5 (Abcam), Rab7 (Abcam), rat anti-hNotch1 (1:200; DSBH). Rabbit anti-dPINK1 was generated as described (Yang et al., 2006).
# (§2) Mitochondria purification. Intact mitochondria from fly heads, fly thoraces and cultured cells were purified at described previously (Wu et al., 2013). […]
# HEK 293T cells = test: as above; type: cell-based, human
# Method: as §1, §2
# [1] = test system: Drosophila larval brain NBs (N-induced NB expansion); test: Pharmacological treatment of N-GOF larvae: ectopic NB formation in larval brain; type: in vivo; conditions: Mdivi-1 5 μM in food, 0.5% DMSO vehicle control, larval brains at 120 hr ALH, PntP1>N-V5
# Method: Pharmacological treatment of larvae. Mdivi-1 (Enzo Life Science) dissolved in 0.5% DMSO was mixed in instant Drosophila media at 5 μM final concentration. 0.5% DMSO alone was used as vehicle control. Embryos were collected on Mdivi-1 containing food or control food for 6 hrs at 25° C. and allowed to develop further to 120 hr ALH before larval brain dissection and immunostaining.
# Immunohistochemistry. For larval brain immunostaining, larvae were dissected in Schneider's medium (Invitrogen) and fixed with 4% formaldehyde in PEM buffer (100 mM PIPES at pH 6.9, 1 mM EGTA, 1 mM MgCl2) for 23 min at room temperature. Immunohistochemistry of TH and mito-GFP in Drosophila brain was performed as described (Wu et al., 2013). […] For thoracic muscle mitochondrial morphology analysis, mito-GFP was expressed in thoracic muscle using the Mhc-Gal4 driver and indirect flight muscles were dissected in PBS and examined under fluorescence confocal microscope. […]
Compound,amount of mitochondrial N (Drosophila muscle tissue),mitochondrial PINK1 level (Drosophila muscle tissue),amount of mitochondrial N (HEK 293T cells),mitochondrial PINK1 level (HEK 293T cells),N-induced NB expansion / ectopic NB formation and brain tumor formation [1]
N#CC(C#N)=NNc1cccc(Cl)c1 [CCCP],not affected,increased,not affected,increased,–
COc1cc(-n2c(=S)[nH]c3ccccc3c2=O)c(Cl)cc1Cl [Mdivi-1],–,–,–,–,attenuated

# From patent US9730935B2, “Targeting a non-canonical notch signaling pathway for cancer treatment” (The Board of Trustees of the Leland Stanford Junior …, priority 2013, dated 2017)
